In brackets after ≈: the same amount, converted by molar mass.
How the values were obtained:
Test in all cases: MIC on standard strains, standard method of Japan Society of Chemotherapy
Format in all cases: cell-based
[1] = test system: P. aeruginosa AKR17; details: Pseudomonas aeruginosa
Experimental: (§1) Antimicrobial activity of the compounds of the present invention were measured using CTM (cefotiam) and FMOX (flomoxef) as control drugs in accordance with the standard method of Japan Society of Chemotherapy. Of the 25 standard strains used in this test, Staphylococcus aureus 167 and Staphylococcus aureus 195 belong to MRSA.
(§2) In these tables, drugs tested are shown by the corresponding examples in which they were synthesized.

[2] = test system: A. faecalis ATCC 3750; details: Alcaligenes faecalis, ATCC3750, A. faecalis ATCC 3750; read-out: MIC
Experimental: as §1, §2

[3] = test system: S. aureus 195; details: Staphylococcus aureus; S. aureus 195 (MRSA)
Experimental: as §1, §2

[4] = test system: P. aeruginosa NCTC 10490; details: Pseudomonas aeruginosa, NCTC10490, P. aeruginosa NCTC 10490; read-out: MIC
Experimental: as §1, §2

[5] = test system: B. subtilis ATCC 6633; details: Bacillus subtilis, ATCC6633, B. subtilis ATCC 6633; read-out: MIC
Experimental: as §1, §2

[6] = test system: S. aureus 209p JC-1; details: Staphylococcus aureus, 209P, read-out: MIC
Experimental: as §1, §2

[7] = test system: S. aureus Smith; details: Staphylococcus aureus, read-out: MIC
Experimental: as §1, §2

[8] = test system: S. marcescens No. 16-2; details: Serratia marcescens, NO.162
Experimental: as §1, §2

[9] = test system: E. coli CSH2(RE45); details: Escherichia coli
Experimental: as §1, §2

[10] = test system: M. morganii IFO 3848; details: Morganella morganii, IFO3848
Experimental: as §1, §2

[11] = test system: P. vulugaris OX-19
Experimental: as §1, §2

[12] = test system: A. calcoaceticos T59; details: read-out: MIC
Experimental: as §1, §2

[13] = test system: S. aureus 167; details: Staphylococcus aureus; S. aureus 167 (MRSA)
Experimental: as §1, §2

[14] = test system: C. freundii ATCC 8090; details: Citrobacter freundii, ATCC8090, C. freundii ATCC 8090; read-out: MIC
Experimental: as §1, §2

[15] = test system: E. coli NHIJ JC-2; details: Escherichia coli, NHIJJC2
Experimental: as §1, §2

[16] = test system: E. cloacae ATCC 13407; details: Enterobacter cloacae, ATCC13407, E. cloacae ATCC 13407; read-out: MIC
Experimental: as §1, §2

[17] = test system: P. mirabilis IFO 3849; details: Proteus mirabilis, IFO3849, P. mirabilis IFO 3849; read-out: MIC
Experimental: as §1, §2

[18] = test system: P. cepacia; details: Burkholderia cepacia, read-out: MIC
Experimental: as §1, §2

[19] = test system: E. coli CSH2(RK1); details: Escherichia coli
Experimental: as §1, §2

[20] = test system: K. pneuminiae IFO 3317
Experimental: as §1, §2

[21] = test system: M. luteus ATCC 9341; details: Micrococcus luteus, ATCC9341
Experimental: as §1, §2

[22] = test system: E. cloacae Nek39; details: Enterobacter cloacae, NEK39, E. cloacae Nek39; read-out: MIC
Experimental: as §1, §2

[23] = test system: S. epidemidis IAM 1296
Experimental: as §1, §2

[24] = test system: S. marcescens IAM 1184; details: Serratia marcescens, IAM1184, S. marcescens IAM 1184; read-out: MIC
Experimental: as §1, §2

[25] = test system: K. pneuminiae No. 42
Experimental: as §1, §2

Row | Compound | MIC [1] | MIC [2] | MIC [3] | MIC [4] | MIC [5] | MIC [6] | MIC [7] | MIC [8] | MIC [9] | MIC [10] | MIC [11] | MIC [12] | MIC [13] | MIC [14] | MIC [15] | MIC [16] | MIC [17] | MIC [18] | MIC [19] | MIC [20] | also measured
1 | NC(=O)Nc1ccc[n+](CC2=C(C(=O)[O-])N3C(=O)[C@@H](NC(=O)/C(=N\O)c4nsc(N)n4)[C@H]3SC2)c1 [Ex. 2, 7β-[2-(5-amino-1,2,4-thiadiazol-3-yl)-2-syn-hydroxyiminoacetamido]-3-(3-ureidopyridinio)methyl-3-cephem-4-carboxylate] | > 100 µg/mL | 3.13 µg/mL (≈ 6.02 µM) | 3.13 µg/mL (≈ 6.02 µM) | 0.78 µg/mL (≈ 1.5 µM) | 0.39 µg/mL (≈ 0.751 µM) | 0.39 µg/mL (≈ 0.751 µM) | 0.78 µg/mL (≈ 1.5 µM) | 100 µg/mL (≈ 192 µM) | 0.78 µg/mL (≈ 1.5 µM) | 0.78 µg/mL (≈ 1.5 µM) | 1.56 µg/mL (≈ 3 µM) | 1.56 µg/mL (≈ 3 µM) | 6.25 µg/mL (≈ 12 µM) | 0.78 µg/mL (≈ 1.5 µM) | 0.78 µg/mL (≈ 1.5 µM) | 6.25 µg/mL (≈ 12 µM) | 1.56 µg/mL (≈ 3 µM) | > 100 µg/mL | 1.56 µg/mL (≈ 3 µM) | 0.39 µg/mL (≈ 0.751 µM) | MIC [21]: 0.05 µg/mL (≈ 0.0962 µM); MIC [22]: 100 µg/mL (≈ 192 µM); MIC [23]: 0.2 µg/mL (≈ 0.385 µM); MIC [24]: 0.39 µg/mL (≈ 0.751 µM); MIC [25]: 0.78 µg/mL (≈ 1.5 µM)
2 | Nc1nc(/C(=N/O)C(=O)N[C@@H]2C(=O)N3C(C(=O)[O-])=C(C[n+]4cccc(-c5ncno5)c4)CS[C@H]23)ns1 [Ex. 5, 7β-[2-(5-amino-1,2,4-thiadiazol-3-yl)-2-syn-hydroxyiminoacetamido]-3-[3-(1,2,4-oxadiazol-5-yl)pyridinio]methyl-3-cephem-4-carboxylate] | > 100 µg/mL | 12.5 µg/mL (≈ 23.6 µM) | 50 µg/mL (≈ 94.4 µM) | 3.13 µg/mL (≈ 5.91 µM) | 0.78 µg/mL (≈ 1.47 µM) | 1.56 µg/mL (≈ 2.95 µM) | 3.13 µg/mL (≈ 5.91 µM) | > 100 µg/mL | 6.25 µg/mL (≈ 11.8 µM) | 3.13 µg/mL (≈ 5.91 µM) | 6.25 µg/mL (≈ 11.8 µM) | 12.5 µg/mL (≈ 23.6 µM) | 50 µg/mL (≈ 94.4 µM) | 6.25 µg/mL (≈ 11.8 µM) | 6.25 µg/mL (≈ 11.8 µM) | 25 µg/mL (≈ 47.2 µM) | 3.13 µg/mL (≈ 5.91 µM) | > 100 µg/mL | 12.5 µg/mL (≈ 23.6 µM) | 3.13 µg/mL (≈ 5.91 µM) | MIC [21]: 0.39 µg/mL (≈ 0.737 µM); MIC [22]: 100 µg/mL (≈ 189 µM); MIC [23]: 0.78 µg/mL (≈ 1.47 µM); MIC [24]: 6.25 µg/mL (≈ 11.8 µM); MIC [25]: 6.25 µg/mL (≈ 11.8 µM)
3 | Nc1nc(/C(=N/O)C(=O)N[C@@H]2C(=O)N3C(C(=O)[O-])=C(C[n+]4ccc(-c5ncno5)cc4)CS[C@H]23)ns1 [Ex. 6, 7β-[2-(5-amino-1,2,4-thiadiazol-3-yl)-2-syn-hydroxyiminoacetamido]-3-[4-(1,2,4-oxadiazol-5-yl)pyridinio]methyl-3-cephem-4-carboxylate] | > 100 µg/mL | 3.13 µg/mL (≈ 5.91 µM) | 6.25 µg/mL (≈ 11.8 µM) | 0.78 µg/mL (≈ 1.47 µM) | 0.39 µg/mL (≈ 0.737 µM) | 0.78 µg/mL (≈ 1.47 µM) | 1.56 µg/mL (≈ 2.95 µM) | > 100 µg/mL | 0.78 µg/mL (≈ 1.47 µM) | 0.39 µg/mL (≈ 0.737 µM) | 1.56 µg/mL (≈ 2.95 µM) | 6.25 µg/mL (≈ 11.8 µM) | 12.5 µg/mL (≈ 23.6 µM) | 0.78 µg/mL (≈ 1.47 µM) | 0.78 µg/mL (≈ 1.47 µM) | 6.25 µg/mL (≈ 11.8 µM) | 0.78 µg/mL (≈ 1.47 µM) | > 100 µg/mL | 1.56 µg/mL (≈ 2.95 µM) | 0.39 µg/mL (≈ 0.737 µM) | MIC [21]: 0.1 µg/mL (≈ 0.189 µM); MIC [22]: 50 µg/mL (≈ 94.4 µM); MIC [23]: 0.39 µg/mL (≈ 0.737 µM); MIC [24]: 0.78 µg/mL (≈ 1.47 µM); MIC [25]: 1.56 µg/mL (≈ 2.95 µM)
